Test results taken from patent publication US6136801A, “Therapeutic agent with quantitative consumption marker” (U. D. Testing, Inc., priority 1998, dated 2000).

Assays:
[1] = Normalized urine compliance marker (diazepam) concentration in patients, FPIA, normalized to urine SG 1.030 and 154 lbs body weight; conditions: diazepam 2 mg p.o. q12h
[2] = Renal excretion rates as a function of urine volume production rate; format: in vivo, human
Description: This constancy has now been experimentally verified by examining the renal excretion rates of methadone, benzodiazepines, other drugs and creatinine and other endogenous metabolites as a function of urine volume production rate. For example, sequential, complete and timed (1-8 hours holding periods) aliquots of urine for 12 compliant control subjects were collected over 24 to 72 hour periods. For each urine aliquot, urine volume production rate (ml/min), specific gravity and creatinine concentration (mg/dl) (as the tested substance) were determined.

## CN1C(=O)CN=C(c2ccccc2)c2cc(Cl)ccc21 [diazepam]
[1]; Experiment #1, patient P-1, methadone 30 mg p.o. q12h
  MEAN NU FOR […]: 500 (SD 90, CV 18%)
[1]; Experiment #1, patient P-3, methadone 30 mg p.o. q12h
  MEAN NU FOR […]: 499 (SD 73, CV 15%)

## CCC(=O)C(CC(C)N(C)C)(c1ccccc1)c1ccccc1 (stereo not drawn) [methadone]
[2]
  renal excretion rates during a typical day: relatively constant
